The supplement of paper PMC12420376

Columns and labels:
Experiment in all cases: cell viability relative to untreated control (ex vivo patient spheroids); higher = less cytotoxic
Conditions in all cases: 72 h
Gem030 = test system: Gem030 (ex vivo spheroids of an HRD-positive high-grade serous ovarian cancer)
Description: (§1)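 Ex vivo 3D spheroid cultures from dissociated tumours of HGSOC patients (DET3CT platform) were treated for 72 h with dose matrices of carboplatin combined with birinapant or vorinostat (nM). Live (TMRM) and dead (POPO-1) cells were imaged and viability was expressed as % of untreated control.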

Gem031 = test system: Gem031 (ex vivo spheroids of an HRD-negative high-grade serous ovarian cancer)
Description: as §1

Gem059 = test system: Gem059 (ex vivo spheroids of an HRD-negative high-grade serous ovarian cancer)
Description: as §1

Gem105 = test system: Gem105 (ex vivo spheroids of an HRD-negative high-grade serous ovarian cancer)
Description: as §1

Gem129 = test system: Gem129 (ex vivo spheroids of an HRD-positive high-grade serous ovarian cancer)
Description: as §1

O=C(O)C1(C(=O)O)CCC1.[NH2-].[NH2-].[Pt+2] [Carboplatin] + CC[C@H](NC(=O)[C@H](C)NC)C(=O)N1C[C@@H](O)C[C@H]1Cc1c(-c2[nH]c3cc(F)ccc3c2C[C@@H]2C[C@H](O)CN2C(=O)[C@H](CC)NC(=O)[C@H](C)NC)[nH]c2cc(F)ccc12 [Birinapant]
cell viability [%]
Conditions	partner drug concentration 0 nM	partner drug concentration 0.1 nM	partner drug concentration 1 nM	partner drug concentration 10 nM	partner drug concentration 100 nM	partner drug concentration 1000 nM
Gem030, carboplatin concentration 10 nM	–	99.1	105	99.7	95.4	59.2
Gem030, carboplatin concentration 100 nM	–	106	115	102	92.5	60.8
Gem030, carboplatin concentration 1000 nM	–	104	91.7	101	88.9	59.8
Gem030, carboplatin concentration 10000 nM	105	102	99.6	94.2	90.1	59.3
Gem030, carboplatin concentration 100000 nM	52.2	60.7	68	68.4	47.1	27.3
Gem031, carboplatin concentration 10 nM	–	93	91.2	96	55.3	25.3
Gem031, carboplatin concentration 100 nM	–	98.1	92.1	88.6	61.2	26.3
Gem031, carboplatin concentration 1000 nM	–	98.6	91.8	93.6	56.8	24.8
Gem031, carboplatin concentration 10000 nM	79.2	87	97.5	77.6	46.3	15.5
Gem031, carboplatin concentration 100000 nM	26.3	26.1	27.6	22.9	11.4	3.6
Gem059, carboplatin concentration 10 nM	–	109	101	119	105	102
Gem059, carboplatin concentration 100 nM	–	99.2	99.2	122	97.4	106
Gem059, carboplatin concentration 1000 nM	–	89.4	109	117	106	118
Gem059, carboplatin concentration 10000 nM	100	102	99.8	97.5	112	99
Gem059, carboplatin concentration 100000 nM	77.4	82.5	97.3	79.6	85.4	90.7
Gem105, carboplatin concentration 10 nM	–	102	90.8	94.9	105	72.5
Gem105, carboplatin concentration 100 nM	–	102	82	100	89.4	79.4
Gem105, carboplatin concentration 1000 nM	–	110	89.4	109	89.2	87.6
Gem105, carboplatin concentration 10000 nM	91.9	97.7	83.8	92.5	80	81.6
Gem105, carboplatin concentration 100000 nM	38.7	41.1	51.4	42.1	30.3	27.6
Gem129, carboplatin concentration 10 nM	–	105	82.3	101	87.1	76.2
Gem129, carboplatin concentration 100 nM	–	94.9	97.3	96	89.5	96.1
Gem129, carboplatin concentration 1000 nM	–	96.4	100	92.5	86.2	73.2
Gem129, carboplatin concentration 10000 nM	80.4	86.7	95.8	86.7	90.5	67.4
Gem129, carboplatin concentration 100000 nM	57.5	57.3	31.2	29.8	27.8	19.6

O=C(O)C1(C(=O)O)CCC1.[NH2-].[NH2-].[Pt+2] [Carboplatin] + O=C(CCCCCCC(=O)Nc1ccccc1)NO [Vorinostat]
cell viability [%]
Conditions	partner drug concentration 0 nM	partner drug concentration 1 nM	partner drug concentration 10 nM	partner drug concentration 100 nM	partner drug concentration 1000 nM	partner drug concentration 10000 nM
Gem030, carboplatin concentration 10 nM	94	101	104	115	100	47.4
Gem030, carboplatin concentration 100 nM	102	108	107	98.2	101	40.2
Gem030, carboplatin concentration 1000 nM	107	110	115	105	106	41
Gem030, carboplatin concentration 10000 nM	105	116	102	111	91.1	40
Gem030, carboplatin concentration 100000 nM	52.2	87.2	69.8	65.9	67.5	17.9
Gem031, carboplatin concentration 10 nM	87.9	97.2	94	90.4	85.1	89.4
Gem031, carboplatin concentration 100 nM	110	97.1	101	95.1	92.6	98.7
Gem031, carboplatin concentration 1000 nM	88	96.9	104	100	93.3	64.1
Gem031, carboplatin concentration 10000 nM	79.2	97.2	90.6	92.2	78.4	38.7
Gem031, carboplatin concentration 100000 nM	26.3	31.4	30.1	22.9	16.9	14.6
Gem059, carboplatin concentration 10 nM	109	99.3	91.5	110	103	86.5
Gem059, carboplatin concentration 100 nM	107	102	105	114	102	95.8
Gem059, carboplatin concentration 1000 nM	91.5	107	104	96.5	110	94.4
Gem059, carboplatin concentration 10000 nM	100	103	116	101	114	95
Gem059, carboplatin concentration 100000 nM	77.4	81.7	81.9	71.5	85	71.2
Gem105, carboplatin concentration 10 nM	105	82.6	99.6	94.3	86.4	33.3
Gem105, carboplatin concentration 100 nM	103	90.7	96.2	93.6	84.9	34.5
Gem105, carboplatin concentration 1000 nM	89.2	102	93.5	112	84.8	39.9
Gem105, carboplatin concentration 10000 nM	91.9	105	93.4	100	79.4	36
Gem105, carboplatin concentration 100000 nM	38.7	52.6	54	53.8	31.9	10.5
Gem129, carboplatin concentration 10 nM	95.8	104	37.5	107	87.6	80.2
Gem129, carboplatin concentration 100 nM	82.8	104	102	97.6	91.9	77.7
Gem129, carboplatin concentration 1000 nM	86	109	108	98.1	81.2	77.3
Gem129, carboplatin concentration 10000 nM	80.4	97.8	90.4	90.4	87.5	59.6
Gem129, carboplatin concentration 100000 nM	57.5	35.8	41.7	33.9	25.8	3.4
